{"source": "paper PMC8117003", "about": "“Pharmacokinetic Profile and Oral Bioavailability of Diosgenin, Charantin, and Hydroxychalcone From a Polyherbal Formulation” (Frontiers in Pharmacology, 2021)", "key": {"[1]": {"assay": "Stability of marker compounds (bioanalytical HPTLC, quality control samples)", "type": "in vitro ADME, rat", "settings": "for Freeze thaw stability / Short-term room temperature stability: rat plasma", "method": "Sample stability was determined by analyzing samples for quality control for analyte’s stock stability in solvent, refrigerator stock solution stability, freeze and thaw stability, and bench top stability. The stability experiments were carried out to evaluate the degradations of the marker compounds under different experimental conditions. […] As per the acceptance criteria, % ratio (Stability/comparison) should be within 85–115%; from the above results, it was concluded that all the marker compounds were within the acceptance criteria for stability study Table 7."}, "[2]": {"assay": "Pharmacokinetics and absolute bioavailability of pure marker compounds after single oral and i.v. dose", "type": "in vivo, male Wistar rats", "settings": "for MRT: MRT (mean residence time); for half-life: t 1/2 (plasma half-life); for k el: plasma, read-out: Kel (elimination rate constant) (converted); for k el / Kel (elimination rate constant): rat plasma", "method": "Plasma concentrations of active marker compounds were determined using validated high-performance thin layer chromatography (HPTLC) with the UV detection method.\nThe plasma samples (150 µl) were deproteinized by adding mixture of methanol: dichloromethane (1:1), followed by vortex mixing at 3000 rpm for 5 min. The supernatant was separated and further extracted with about 1.5 ml of ethyl acetate by mixing on vortex mixer at 3000 rpm for 10 min. The ethyl acetate layer was then collected and evaporated to dryness, followed by reconstitution with mobile phase (200 µl) containing chloroform: glacial acetic acid: methanol: water ((4.0:3.0:2.0:1.0) v/v and 100 µl was applied on a HPTLC plate. The optimized HPTLC conditions for development and quantification of the constituents is given in Table 2.\nAbsolute bioavailabilities of marker compounds viz. diosgenin, charantin, and hydroxychalcone were determined in male Wistar rats. The animals weighing 300–350 gm were fasted overnight before the dosing with free access to drinking water throughout the experimental period. For the purpose of dosing all the three marker compounds viz, diosgenin, charantin, and hydroxychalcone were suspended in water to make the dose of 15 mg/kg per oral to be administrated to the groups of […]. The animals were divided into two groups with six animals in each group. The first group received the marker compounds in the dose of 1.5 mg/kg i.v. via lateral tail vein, while the second group received the marker compounds in the dose of 15 mg/kg p.o. The rats were anesthetized using ether and blood samples were collected through puncturing the retro-orbital plexus at 0, 0.17, 0.5, 1, 2, 4, 6, 12, and 24 h time points. Blood samples were centrifuged to separate plasma and stored at −20°C until bioanalysis.\nNon-compartmental analysis of data was performed using statistical moment theory. The peak plasma concentration (Cmax) and the corresponding time (Tmax) were directly obtained from the raw data.\nThe area under the plasma concentration vs. time curve upto the last quantifiable point, AUC(0-t), was calculated by the linear and log-linear trapezoidal rule summation: AUC(0−t) =∑C0+Ct/2× Tt− T0.\nThe AUC(0-t) was extrapolated to infinity (i.e., […]) by adding the quotient of Clast/Kel, AUC(t−∞) = Clast/Kel,\nKel was calculated by the linear regression of the log-transformed concentrations of the last three data points in the terminal phase. Kel = −slope × 2.303.\nThe half-life of the elimination phase was obtained from using the relationship, t 1/2 = 0.693/Kel.\nClearance was calculated using the relationship Cl = Vd × Kel\nApparent volume of distribution was calculated using relationship Vd = Dose Administered/Plasma concentration.\nAbsolute oral bioavailability (F) was calculated using relationship F = {[AUC (oral)/AUC (iv)] × [Dose (iv)/Dose (oral)]} × 100."}, "[3]": {"settings": "male, Wistar, rat, in vivo, iv, 1.5 mg/kg"}, "[4]": {"settings": "male, Wistar, rat, in vivo, po, 15 mg/kg"}, "[5]": {"settings": "pure marker, oral single dose 15 mg/kg, 15 mg/kg"}}, "note": "Values joined by “and” are separate entries in the source; they are usually repeats but may differ in a detail not shown here. Equal entries are not always repeated. Where two headings read alike, the source gives them in different places.", "data": [{"compound": "C[C@@H]1CC[C@@]2(OC1)O[C@H]1C[C@H]3[C@@H]4CC=C5C[C@@H](O)CC[C@]5(C)[C@H]4CC[C@]3(C)[C@H]1[C@@H]2C", "note": "[Diosgenin]", "values": [{"measurement": "Refrigerator standard stock solution stability", "setting": "[1]; 0.4 µg/ml", "result": "91.73 ± 0.46", "unit": "%"}, {"measurement": "Room temperature standard stock solution stability", "setting": "[1]; 0.4 µg/ml", "result": "85.18 ± 0.45", "unit": "%"}, {"measurement": "Refrigerator standard stock solution stability", "setting": "[1]; 0.8 µg/ml", "result": "90.24 ± 1.13", "unit": "%"}, {"measurement": "Room temperature standard stock solution stability", "setting": "[1]; 0.8 µg/ml", "result": "84.86 ± 1.23", "unit": "%"}, {"measurement": "Refrigerator standard stock solution stability", "setting": "[1]; 1.2 µg/ml", "result": "89.56 ± 2.21", "unit": "%"}, {"measurement": "Room temperature standard stock solution stability", "setting": "[1]; 1.2 µg/ml", "result": "85.03 ± 2.16", "unit": "%"}, {"measurement": "Degradation in plasma", "setting": "[1]; plasma, under different experimental conditions", "result": "no significant degradation"}, {"measurement": "Freeze thaw stability", "setting": "[1]; 0.4 µg/ml", "result": 87.06, "unit": "%"}, {"measurement": "Short-term room temperature stability", "setting": "[1]; 0.4 µg/ml", "result": 98.64, "unit": "%"}, {"measurement": "Freeze thaw stability", "setting": "[1]; 0.8 µg/ml", "result": 94.52, "unit": "%"}, {"measurement": "Short-term room temperature stability", "setting": "[1]; 0.8 µg/ml", "result": 97.90, "unit": "%"}, {"measurement": "Freeze thaw stability", "setting": "[1]; 1.2 µg/ml", "result": 97.86, "unit": "%"}, {"measurement": "Short-term room temperature stability", "setting": "[1]; 1.2 µg/ml", "result": 98.25, "unit": "%"}, {"measurement": "bioavailability", "setting": "[2]; male, Wistar, rat, in vivo", "result": "9 ± 0.2", "unit": "%"}, {"measurement": "AUC 0-∞", "setting": "[2]; [3]", "result": "4957.5 ± 440", "unit": "ng·h/mL"}, {"measurement": "Cl (drug clearance)", "setting": "[2]; [3]", "result": "0.2221 ± 0.05", "unit": "mL/h/kg"}, {"measurement": "Cmax", "setting": "[2]; [3]", "result": "612.2 ± 100", "unit": "ng/mL"}, {"measurement": "MRT (mean residence time)", "setting": "[2]; [3]", "result": "9.9420 ± 0.90", "unit": "h"}, {"measurement": "Vd (apparent volume of distribution)", "setting": "[2]; [3]", "result": "0.0025397 ± 0.00057", "unit": "L/kg"}, {"measurement": "t 1/2 (plasma half-life)", "setting": "[2]; [3]", "result": "7.9300 ± 0.37", "unit": "h"}, {"measurement": "AUC(0-inf)", "setting": "[2]; [3]", "result": 4470, "unit": "ng·h/mL"}, {"measurement": "clearance", "setting": "[2]; male, Wistar, rat, in vivo, iv, 1.5 mg/kg, Cl (drug clearance)", "result": 220, "unit": "mL/h/kg"}, {"measurement": "Cmax", "setting": "[2]; male, Wistar, rat, in vivo, iv, 1.5 mg/kg, Cmax", "result": 570, "unit": "ng/mL"}, {"measurement": "MRT", "setting": "[2]; [3]", "result": 8.2, "unit": "h"}, {"measurement": "Vd", "setting": "[2]; male, Wistar, rat, in vivo, iv, 1.5 mg/kg, Vd (apparent volume of distribution)", "result": 2.5, "unit": "L/kg"}, {"measurement": "half-life", "setting": "[2]; [3]", "result": 7.56, "unit": "h"}, {"measurement": "AUC 0-∞", "setting": "[2]; [4]", "result": "4475.3 ± 60", "unit": "ng·h/mL"}, {"measurement": "Cl (drug clearance)", "setting": "[2]; [4]", "result": "2.5143 ± 0.09", "unit": "mL/h/kg"}, {"measurement": "Cmax", "setting": "[2]; [4]", "result": "577.3 ± 12", "unit": "ng/mL"}, {"measurement": "MRT (mean residence time)", "setting": "[2]; [4]", "result": "8.2008 ± 0.15", "unit": "h"}, {"measurement": "Tmax", "setting": "[2]; [4]", "result": 1, "unit": "h"}, {"measurement": "t 1/2 (plasma half-life)", "setting": "[2]; [4]", "result": "7.5638 ± 0.21", "unit": "h"}, {"measurement": "AUC(0-inf)", "setting": "[2]; [4]", "result": 4950, "unit": "ng·h/mL"}, {"measurement": "Cmax", "setting": "[2]; male, Wistar, rat, in vivo, po, 15 mg/kg, Cmax", "result": 610, "unit": "ng/mL"}, {"measurement": "MRT", "setting": "[2]; [4]", "result": 9.94, "unit": "h"}, {"measurement": "half-life", "setting": "[2]; [4]", "result": 7.93, "unit": "h"}, {"measurement": "k el", "setting": "[2]; male, Wistar, rat, iv, 1.5 mg/kg, pure marker, IV single dose 1.5 mg/kg", "result": "2.5e-05", "unit": "s⁻¹"}, {"measurement": "k el", "setting": "[2]; male, Wistar, rat, po, 15 mg/kg, pure marker, oral single dose 15 mg/kg", "result": "2.22e-05", "unit": "s⁻¹"}, {"measurement": "AUMC 0-∞", "setting": "[2]; pure marker, IV single dose 1.5 mg/kg", "result": "17.3937 ± 2.10", "unit": "µg.h^2/ml"}, {"measurement": "Kel (elimination rate constant)", "setting": "[2]; pure marker, IV single dose 1.5 mg/kg, 1.5 mg/kg", "result": "0.0875 ± 0.004", "unit": "h⁻¹"}, {"measurement": "AUMC 0-∞", "setting": "[2]; pure marker, oral single dose 15 mg/kg", "result": "36.700 ± 0.77", "unit": "µg.h^2/ml"}, {"measurement": "Kel (elimination rate constant)", "setting": "[2]; [5]", "result": "0.0917 ± 0.003", "unit": "h⁻¹"}, {"measurement": "Ka (rate of absorption)", "setting": "[2]; [5]", "result": "1.1 h⁻¹ and 1.1 ± 0.10 h⁻¹"}]}, {"compound": "Charantin", "values": [{"measurement": "Degradation in plasma", "setting": "[1]", "result": "no significant degradation"}, {"measurement": "Absolute bioavailability", "setting": "[2]; rat, in vivo", "result": "8.18 ± 0.36", "unit": "%"}, {"measurement": "AUMC 0-∞", "setting": "[2]; rat, in vivo, iv, 1.5 mg/kg", "result": "182.9438 ± 1.74", "unit": "µg.h^2/ml"}, {"measurement": "AUMC 0-∞", "setting": "[2]; rat, in vivo, po, 15 mg/kg", "result": "176.7245 ± 1.83", "unit": "µg.h^2/ml"}, {"measurement": "Cl (drug clearance)", "setting": "[2]; rat, in vivo, po, 15 mg/kg", "result": "5.9268 ± 0.31", "unit": "mL/h/kg"}, {"measurement": "Tmax", "setting": "[2]; rat, in vivo, po, 15 mg/kg", "result": 6, "unit": "h"}]}]}
